Laboratory results as given in US8071590B2, “9-substituted-5-carboxy-oxadiazino-quinolone derivatives, their preparation and their application as anti-bacterials” (Vetoquinol SA, priority 2008, dated 2011).
≈ marks a conversion by molar mass, not a printed value.

Experiments:
Assay type in all cases: cell-based
[1] = tested on: Staphylococcus aureus, resistant (Sta aur r); experiment: microbe, parasite or virus in culture; settings: read-out: MIC Sta aur r
[2] = tested on: Streptococcus uberis (Str ube); experiment: microbe, parasite or virus in culture; settings: read-out: MIC Str ube
[3] = tested on: Pseudomonas aeruginosa, susceptible (Pse aer s); experiment: microbe, parasite or virus in culture; settings: read-out: MIC Pse aer s
[4] = tested on: Mannheimia haemolytica, resistant (Man hae r); experiment: MIC determination by microdilution in liquid medium; settings: resistant strain
[5] = tested on: Bordetella bronchiseptica (Bor bron); experiment: microbe, parasite or virus in culture; settings: read-out: MIC Bor bron
[6] = tested on: Mycoplasma bovis (Myc bov); experiment: microbe, parasite or virus in culture; settings: Mycoplasmopsis bovis, read-out: MIC Myc bov
[7] = tested on: Staphylococcus aureus, susceptible (Sta aur s); experiment: microbe, parasite or virus in culture; settings: read-out: MIC Sta aur s
[8] = tested on: Mannheimia haemolytica, susceptible (Man hae s); experiment: MIC determination by microdilution in liquid medium; settings: susceptible strain
[9] = tested on: Escherichia coli (E coli); experiment: microbe, parasite or virus in culture; settings: read-out: MIC E coli
[10] = tested on: Pseudomonas aeruginosa, resistant (Pse aer r); experiment: microbe, parasite or virus in culture; settings: read-out: MIC Pse aer r
[11] = tested on: Clostridium perfringens (Clo per); experiment: microbe, parasite or virus in culture; settings: read-out: MIC Clo per

Row | SMILES | MIC [1] [µg/mL] | MIC [2] [µg/mL] | MIC [3] [µg/mL] | MIC [4] [µg/mL] | MIC [5] [µg/mL] | MIC [6] [µg/mL] | MIC [7] [µg/mL] | MIC [8] [µg/mL] | MIC [9] [µg/mL] | MIC [10] [µg/mL] | MIC [11] [µg/mL]
1 | CN1COc2c(N3CCN4CCCC4C3)c(F)cc3c(=O)c(C(=O)O)cn1c23 (stereo not shown) [Example 7, 8-Fluoro-9-(hexahydro-pyrrolo[1,2-a]pyrazin-2-yl)-3-methyl-6-oxo-2,3-dihydro-6H-1-oxa-3,3a-diaza-phenalene-5-carboxylic acid] | 16 (≈ 41.2 µM) | 0.5 (≈ 1.29 µM) | 1 (≈ 2.57 µM) | 4 (≈ 10.3 µM) | 0.5 (≈ 1.29 µM) | 1 (≈ 2.57 µM) | 0.25 (≈ 0.644 µM) | 0.03 (≈ 0.0772 µM) | 0.06 (≈ 0.154 µM) | 8 (≈ 20.6 µM) | 0.25 (≈ 0.644 µM)
2 | CN1COc2c(N3CCN4CCCCC4C3)c(F)cc3c(=O)c(C(=O)O)cn1c23 (stereo not shown) [Example 6, 8-Fluoro-3-methyl-9-(octahydro-pyrido[1,2-a]pyrazin-2-yl)-6-oxo-2,3-dihydro-6H-1-oxa-3,3a-diaza-phenalene-5-carboxylic acid] | 16 (≈ 39.8 µM) | 1 (≈ 2.48 µM) | 2 (≈ 4.97 µM) | 16 (≈ 39.8 µM) | 1 (≈ 2.48 µM) | 1 (≈ 2.48 µM) | 0.25 (≈ 0.621 µM) | 0.06 (≈ 0.149 µM) | 0.12 (≈ 0.298 µM) | 32 (≈ 79.5 µM) | 0.5 (≈ 1.24 µM)
3 | Cc1ncsc1C(=O)N1CCN(c2c(F)cc3c(=O)c(C(=O)O)cn4c3c2OCN4C)CC1 [Example 3, 8-Fluoro-3-methyl-9-[4-(4-methyl-thiazole-5-carbonyl)-piperazin-1-yl]-6-oxo-2,3-dihydro-6H-1-oxa-3,3a-diaza-phenalene-5-carboxylic acid] | 16 (≈ 33.8 µM) | 1 (≈ 2.11 µM) | – | – | 2 (≈ 4.22 µM) | 2 (≈ 4.22 µM) | 0.25 (≈ 0.528 µM) | 0.5 (≈ 1.06 µM) | > 1 | – | 0.5 (≈ 1.06 µM)
4 | CN1COc2c(N3CCN4CCC[C@@H]4C3)c(F)cc3c(=O)c(C(=O)O)cn1c23 [Example 9, 8-Fluoro-9-(R)-hexahydro-pyrrolo[1,2-a]pyrazin-2-yl-3-methyl-6-oxo-2,3-dihydro-6H-1-oxa-3,3a-diaza-phenalene-5-carboxylic acid] | 8 (≈ 20.6 µM) | 0.5 (≈ 1.29 µM) | 0.5 (≈ 1.29 µM) | 4 (≈ 10.3 µM) | 0.25 (≈ 0.644 µM) | 0.5 (≈ 1.29 µM) | 0.12 (≈ 0.309 µM) | 0.03 (≈ 0.0772 µM) | 0.03 (≈ 0.0772 µM) | 8 (≈ 20.6 µM) | 0.5 (≈ 1.29 µM)
5 | CN1COc2c(N3CCN(C(=O)c4cscn4)CC3)c(F)cc3c(=O)c(C(=O)O)cn1c23 [Example 2] | 8 (≈ 17.4 µM) | 2 (≈ 4.35 µM) | – | – | > 1 | 1 (≈ 2.18 µM) | 0.12 (≈ 0.261 µM) | 0.25 (≈ 0.544 µM) | > 1 | – | 0.25 (≈ 0.544 µM)
6 | CN1COc2c(N3CCN(C(=O)c4cccn4C)CC3)c(F)cc3c(=O)c(C(=O)O)cn1c23 [Example 1, 8-Fluoro-3-methyl-9-[4-(1-methyl-1H-pyrrole-2-carbonyl)-piperazin-1-yl]-6-oxo-2,3-dihydro-6H-1-oxa-3,3a-diaza-phenalene-5-carboxylic acid] | 16 (≈ 35.1 µM) | 2 (≈ 4.39 µM) | – | – | > 1 | 0.5 (≈ 1.1 µM) | 0.25 (≈ 0.549 µM) | 1 (≈ 2.2 µM) | > 1 | – | 0.5 (≈ 1.1 µM)
7 | CN1COc2c(N3CCN4CCC[C@H]4C3)c(F)cc3c(=O)c(C(=O)O)cn1c23 [Example 8, 8-Fluoro-9-(S)-hexahydro-pyrrolo[1,2-a]pyrazin-2-yl-3-methyl-6-oxo-2,3-dihydro-6H-1-oxa-3,3a-diaza-phenalene-5-carboxylic acid] | 16 (≈ 41.2 µM) | 0.5 (≈ 1.29 µM) | 0.5 (≈ 1.29 µM) | 8 (≈ 20.6 µM) | 0.5 (≈ 1.29 µM) | 1 (≈ 2.57 µM) | 0.25 (≈ 0.644 µM) | 0.03 (≈ 0.0772 µM) | 0.03 (≈ 0.0772 µM) | 8 (≈ 20.6 µM) | 0.25 (≈ 0.644 µM)
8 | CN1COc2c(N3CCN(C(=O)c4ccco4)CC3)c(F)cc3c(=O)c(C(=O)O)cn1c23 [Example 5, 8-Fluoro-9-[4-(furan-2-carbonyl)-piperazin-1-yl]-3-methyl-6-oxo-Z 3-dihydro-6H-1-oxa-3,3a-diaza-phenalene-5-carboxylic acid] | 4 (≈ 9.04 µM) | 1 (≈ 2.26 µM) | > 1 | – | > 1 | 0.5 (≈ 1.13 µM) | 0.06 (≈ 0.136 µM) | 0.25 (≈ 0.565 µM) | 1 (≈ 2.26 µM) | – | < 0.03
9 | CN1COc2c(N3CCN(C(=O)c4cccs4)CC3)c(F)cc3c(=O)c(C(=O)O)cn1c23 [Example 4, 8-Fluoro-3-methyl-6-oxo-9-[4-(thiophene-2-carbonyl)-piperazin-1-yl]-2,3-dihydro-6H-1-oxa-3,3a-diaza-phenalene-5-carboxylic acid] | 4 (≈ 8.72 µM) | 0.5 (≈ 1.09 µM) | – | – | 2 (≈ 4.36 µM) | 0.5 (≈ 1.09 µM) | 0.06 (≈ 0.131 µM) | 0.25 (≈ 0.545 µM) | > 1 | – | 0.25 (≈ 0.545 µM)
